Assay results as given in US7833795B2, “Assessment of cardiovascular risk using isoprostane biomarkers and COX-2 selective inhibitors” (The Trustees of the University of Pennsylvania, priority 2004, dated 2010).

Assays:
Male Fisher 344 rats [1] = test: Plasma free plus esterified 8-iso-PGF2α by GC/MS; assay type: in vivo, rat
Procedure: (§1) Animals and treatment protocol: Male Fisher 344 rats (260-280 g) obtained from Charles River Laboratories (Raleigh, N.C.) were used in all experiments. The animals were housed three to a cage. Autoclaved hardwood bedding was used in solid-bottom polycarbonate cages with filter tops. Animal rooms were maintained at 20-25° C. with 35-70% relative humidity with alternating 12-hour light and dark cycles. The rats had free access to deionized, reverse-osmosis-treated water and received autoclaved NIH 31 rodent chow (Zeigler Bros., Gardners, Pa.) ad libitum. For all experiments, rats were fasted overnight and then administered intraperitoneal injections of carbon tetrachloride in canola oil. Control rats received an equal volume of canola oil. Fasting continued throughout the experiment. Rats were anesthetized with Nembutal (0.1 ml/100 g body weight) and 5 ml blood was removed from the dorsal aorta proximal to its bifurcation into the common iliac arteries.
(§2) Indomethacin pretreatment: The indomethacin regimen used has been previously shown to inhibit COX activity in rats by 90% (dose of 5 mg/kg s.c. 24 hours, 12 hours, and 2 hours prior to the injection of CCl4) (Jackson, 1989, J. Pharmacol. Exp. Ther. 250: 9-21). An additional booster dose was injected 8 hours after the last injection of CCl4 for the measurements performed 16 hours after treatment with CCl4.
(§3) Meclofenamic acid pretreatment: Meclofenamic acid was injected at a dose of 5 mg/kg i.p. 12 h and 2 h prior to the injection of CCl4.
(§4) Carbon tetrachloride (CCL4) treatment: Animals from each of the three dose groups (Control-canola oil, 120 mg/kg CCl4 i.p. and 1200 mg/kg CCl4 i.p.) were investigated at three time points (2, 7, and 16 hours after CCl4 injection). Indomethacin-pretreated rats were also investigated at the same three time points, and the meclofenamic acid-pretreated rats were investigated at one time point (7 hours). Each group consisted of five rats for each analysis, except the meclofenamic acid pretreatment group which consisted of six rats. Animal treatment, sample preparation, assessment of liver histology and serum enzyme activities are described elsewhere (Kadiiska et al., 2000, Free Radic. Biol. Med. 28: 838-845; Jackson, 1989, J. Pharmacol. Exp. Ther. 250: 9-21) and were carried out at NIEHS, Research Triangle Park, N.C.
(§5) Plasma sample preparation: Blood (5 ml) was drawn through single draw Vacutainer® needles (21 Gauge) into open Vacutainer® blood collection tubes containing heparin. The tubes were gently inverted 2-3 times for mixing and immediately placed on ice. Blood was centrifuged (2,000 rpm for 10 minutes at 4° C.) no more than 30 minutes after collection, and the plasma was collected, frozen on dry ice and stored at −70° C.
Measurement of the sum of free plus esterified 8-iso-PGF2α in plasma were performed using an improved GC/MS-based analysis for the quantitation of this isoprostane in plasma. A detailed protocol for this extraction and quantitation has been published (Parker et al., 2001, Mol. Biotechnol. 18: 105-118). Measurements of the sum of free plus esterified 8-iso-PGF2α in plasma were performed at NIEHS, Research Triangle Park, N.C.

Male Fisher 344 rats [2] = test: Plasma free 8-iso-PGF2α by GC/NICI-MS; assay type: in vivo, rat; conditions: meclofenamic acid 5 mg/kg i.p. pretreatment; only higher CCl4 dose, 7 h
Procedure: as §1, §2, §3, §4, §5
Two slightly different methods developed in two different laboratories were used to measure the effect of CCl4 on the plasma levels of free 8-iso-PGF2α, and the sum of free plus esterified 8-iso-PGF2α (also known as 8-epi-PGF2α and iPF2α-III and 15-F2t-IsoP). Free 8-iso-PGF2α concentrations in plasma were determined by gas chromatography/negative ion chemical ionization mass spectrometry (GC/NICI-MS) by the method of Morrow et al. (1999, Methods Enzymol. 300: 3-12). Briefly, [2H4] 8-iso-PGF2α internal standard was added to plasma and F2-isoprostanes were extracted with a C18 Sep-Pak® Cartridge (Waters Associates, Milford, Mass.). The extracted F2-isoprostanes were converted to pentafluorobenzyl ester and purified by TLC after which they were converted to a trimethylsilyl ether derivative and subsequently analyzed by GC-MS. The assay was developed and performed at Vanderbilt University, Nashville, Tenn.

Male Fisher 344 rats [3] = test: Urinary MDA by HPLC with spectrophotometry; assay type: in vivo, rat; conditions: for urinary MDA: meclofenamic acid pretreatment
Procedure: as §1, §2, §3, §4
(§6) Urine sample preparation: The day prior to treatment, both experimental and control animals were placed in stainless steel metabolic cages especially designed for urine collection. For Experimental Example 2, animals were placed in metabolic cages immediately after the last injection of indomethacin or meclofenamic acid. Urine was collected (in dark vials) from the animals during the following intervals: 2 to 7 hours and 7 to 16 hours after CCl4 or canola oil (controls) treatment. Urine samples from indomethacin-pretreated rats were collected from 2 to 7 hours and 7 to 16 hours after the injection of CCl4, whereas samples from meclofenamic-acid-pretreated rats were collected only from 2 to 7 hours after the injection. All urine samples were immediately frozen on dry ice and stored at −70° C.
Urinary MDA was analyzed using high pressure liquid chromatography (HPLC). To 500 μl urine samples, 25 μl BHT and 750 μl 0.5% TBA solution were added, in this order. Samples were incubated at 60° C. for 60 minutes. After cooling, chloroform (750 μl) was added and mixed well. Following centrifugation, the aqueous layer was removed and used for HPLC analysis (column […]; mobile phase, 6:4(v/v) 0.04 M acetate buffer (pH 5.5)/MeOH; detection, 532 nm). The procedure was developed and performed by OXIS Research, Portland, Oreg.

Male Fisher 344 rats [4] = test: Urinary free plus esterified 8-iso-PGF2α by immunoassay; assay type: in vivo, rat
Procedure: as §1, §2, §3, §4, §6
Urinary 8-iso-PGF2α concentrations were measured by the competitive immunoassay procedure in which 8-iso-PGF2α conjugated to alkaline phosphatase competed with the test analyte for antibody specific for the isoprostane. The anti-8-iso-PGF2α antibody was captured by anti-Fc antibodies immobilized on a microtiter plate. The assay was developed by Assay Designs, Inc., Ann Arbor, Mich. and performed at OXIS Research, Portland, Oreg.
In an additional method not recited in Example 1, an immunoassay was used to measure the sum of free plus esterified 8-iso-PGF2α. The immunoassay used anti-8-iso-PGF2α antibody was developed by Assay Designs, Inc., Ann Arbor, Mich., and performed at Oxis Research, Portland, Oreg.

Male Fisher 344 rats [5] = test: Urinary 8,12-iso-iPF2α-VI by LC/MS/MS; assay type: in vivo, rat; conditions: for urinary 8,12-iso-iPF2α-VI, pretreated vs non-pretreated: indomethacin pretreatment
Procedure: as §1, §2, §3, §4, §6
Analysis of 8,12-iso-iPF2α-VI, which is, along with its epimer 5-epi-8,12-iso-iPF2α-VI, the most prevalent PGF-ring isoprostane in human urine, was accomplished by addition of a tetradeuterated analog, solid phase extraction and quantitation using liquid chromatography and tandem mass spectroscopy (LC/MS/MS) (Li et al., 1999, Proc. Natl. Acad. Sci. USA 96: 13381-13386). The measurements were performed at the University of Pennsylvania, Philadelphia, Pa.

Male Fisher 344 rats [6] = test: Urinary free 8-iso-PGF2α by radioimmunoassay; assay type: in vivo, rat
Procedure: as §1, §3
as §4, with “N.C. […]” for “N.C.”
In Experimental Example 2, urine samples were also analyzed for free 8-iso-PGF2α, without any extraction, by radioimmunoassay (Basu, 1998, Prost. Leuk. Ess. Fatty Acids. 58: 319-325). […]

Male Fisher 344 rats [7] = test: Plasma MDA, TBA colorimetric assay with 3rd derivative spectroscopy; assay type: in vivo, rat; conditions: indomethacin pretreatment
Procedure: as §1, §4, §5
Two colorimetric-based assays, using third derivative spectroscopy, were also used to measure MDA in plasma. The TBA colorimetric assay is designed to measure free MDA and MDA-protein adducts (Schiff base), and therefore includes mild acid hydrolysis. The Bioxytech® LPO-586™ colorimetric assay is based upon the reaction of the chromogenic reagent N-methyl-2-phenylindole (NMPI) with MDA at 45° C. One molecule of free MDA combines with 2 molecules of the chromogenic agent to produce a stable chromophore with a maximal absorbance at 586 nm. In both assays, the concentration of MDA was determined with 3rd derivative spectroscopy. Both assays were developed by OXIS Research Inc., Portland, Oreg., and were performed at OXIS and at Loyola University Medical Center, Maywood, Ill.

Male Fisher 344 rats [8] = test: Plasma MDA by GC/NICI-MS; assay type: in vivo, rat; conditions: indomethacin pretreatment; controls at 7 and 16 h, lower CCl4 dose at 2 and 16 h
Procedure: as §1, §2, §4, §5
Plasma MDA concentrations were also measured by using gas chromatography/negative ion chemical ionization mass spectroscopy (GC/NICI-MS) as described by Yeo et al. (Yeo et al., 1994, Anal. Biochem. 220: 391-396). The stable isotope internal standard [^2H2] MDA and an antioxidant (2,6-tert-butyl-4-methylphenol) were added to the plasma samples. The samples were then incubated at room temperature in 6.6 mol H2SO4 for 10 minutes to hydrolyze the aldehydes from the proteins. Plasma MDA was converted to a stable pentafluorophenyl hydrazine derivative which was quantified by using the GC-MS in the negative chemical ionization mode. The assay was performed at Children's Hospital Oakland Research Institute, Oakland, Calif.

COX = conditions: 5 mg/kg s.c. 24, 12 and 2 hours prior to CCl4; cited from earlier work
[9] = meclofenamic acid pretreatment, 7 h

| SMILES | plasma free plus esterified 8-iso-PGF2α, effect compared with that on free 8-iso-PGF2α (Male Fisher 344 rats [1]; [9]) | plasma free 8-iso-PGF2α, pretreated vs non-pretreated (Male Fisher 344 rats [2]) | urinary MDA (Male Fisher 344 rats [3]; higher dose of CCl4, 7 h) | urinary MDA (Male Fisher 344 rats [3]; low dose of CCl4, 7 h) | urinary free plus esterified 8-iso-PGF2α (immunoassay), pretreated vs non-pretreated (Male Fisher 344 rats [4]; meclofenamic acid pretreatment, high CCl4 dose, 7 h) | CCl4-induced urinary 8,12-iso-iPF2α-VI (Male Fisher 344 rats [5]; [9]) | basal urinary free 8-iso-PGF2α (radioimmunoassay) vs control group (Male Fisher 344 rats [6]; meclofenamic acid-treated rats, no CCl4) | urinary free 8-iso-PGF2α (radioimmunoassay) (Male Fisher 344 rats [6]; meclofenamic pretreatment, both doses of CCl4, 7 h) | plasma MDA (third derivative spectroscopy), pretreated vs non-pretreated (Male Fisher 344 rats [7]) | plasma MDA (GC/MS), pretreated vs non-pretreated rats (Male Fisher 344 rats [8]) | plasma free plus esterified 8-iso-PGF2α, pretreated vs non-pretreated (Male Fisher 344 rats [1]; indomethacin pretreatment, only higher CCl4 dose at 2 and 7 h) | urinary MDA, pretreated vs non-pretreated (Male Fisher 344 rats [3]; indomethacin pretreatment, controls and low-dose CCl4, both time points) | urinary free plus esterified 8-iso-PGF2α (immunoassay), pretreated vs non-pretreated (Male Fisher 344 rats [4]; indomethacin pretreatment, controls at 7 h, higher CCl4 dose at both time points) | urinary 8,12-iso-iPF2α-VI, pretreated vs non-pretreated (Male Fisher 344 rats [5]; controls, earlier time point) | urinary 8,12-iso-iPF2α-VI, pretreated vs non-pretreated (Male Fisher 344 rats [5]; higher dose CCl4) | urinary 8,12-iso-iPF2α-VI, pretreated vs non-pretreated (Male Fisher 344 rats [5]; low dose CCl4) | inhibition of COX activity in rats (COX) [%] |
| --- | --- | --- | --- | --- | --- | --- | --- | --- | --- | --- | --- | --- | --- | --- | --- | --- | --- |
| Cc1ccc(Cl)c(Nc2ccccc2C(=O)O)c1Cl [meclofenamic acid] | similar | significant decrease | significant inhibition | increased | significant decrease | increased | lower basal levels | increased | – | – | – | – | – | – | – | – | – |
| COc1ccc2c(c1)c(CC(=O)O)c(C)n2C(=O)c1ccc(Cl)cc1 [indomethacin, 1-[p-chlorobenzoyl]-5-methoxy-2-methylindole-3-acetic acid] | – | – | – | – | – | – | – | – | similarly decreased | statistically significant decrease | statistically significant suppression | increase in MDA excretion | Suppression | increased | markedly inhibited | no effect | 90 |
